The source made the active and inactive calls. No cut-off for these calls is given here.
Tests used:
Rattus norvegicus [1] = assay: Neuroprotective activity against transient middle cerebral artery occlusion induced ischemia stroke Sprague-Dawley rat model assessed as increase in neuro-fucntional score at 10 mg/kg, iv and measured after 24 hrs by longa's method; format: functional, organism-based
[2] = Toxicity in transient middle cerebral artery occlusion induced ischemia stroke Sprague-Dawley rat model assessed as change in body weight at 10 mg/kg, iv and measured after 24 hrs; format: organism-based; conditions: in vivo
Rattus norvegicus [3] = assay: Neuroprotective activity against transient middle cerebral artery occlusion induced cerebral infraction Sprague-Dawley rat model assessed as decrease in cerebral infraction volume at 10 mg/kg, iv and measured after 24 hrs by TTC staining based assay; format: functional; parameters: scale not given: the % may be the effect or the level left
Rattus norvegicus [4] = assay: Neuroprotective activity against transient middle cerebral artery occlusion induced cerebral infraction Sprague-Dawley rat model assessed as decrease in brain edema at 10 mg/kg, iv and measured after 24 hrs; format: functional; parameters: scale not given: the % may be the effect or the level left
[5] = Metabolic stability in rat plasma assessed as half life at 200 uM and measured upto 24 hrs by HPLC analysis; format: ADME, cell-free
[6] = Metabolic stability in rat liver microsomes assessed as half life at 20 mM and measured upto 120 mins by HPLC analysis; format: ADME, Microsome
[7] = Prodrug conversion in Sprague-Dawley rat plasma assessed as elimination rate constant of metabolite S-NBP at 10 mg/kg, iv and measured upto 24 hrs by LC-MS/MS analysis; format: ADME, organism-based; conditions: in vivo
[8] = Prodrug conversion in Sprague-Dawley rat plasma assessed as half life of metabolite S-NBP at 10 mg/kg, iv and measured upto 24 hrs by LC-MS/MS analysis; format: ADME, organism-based; conditions: in vivo
[9] = Prodrug conversion in Sprague-Dawley rat plasma assessed as Cmax of metabolite S-NBP at 10 mg/kg, iv and measured upto 24 hrs by LC-MS/MS analysis; format: ADME, organism-based; parameters: time < 24 hrs, dose 10 mg/kg, route iv; conditions: in vivo
[10] = Prodrug conversion in Sprague-Dawley rat plasma assessed as C0 of metabolite S-NBP at 10 mg/kg, iv and measured upto 24 hrs by LC-MS/MS analysis; format: ADME, organism-based; conditions: in vivo
[11] = Prodrug conversion in Sprague-Dawley rat plasma assessed as AUC (0-t) of metabolite S-NBP at 10 mg/kg, iv and measured upto 24 hrs by LC-MS/MS analysis; format: ADME, organism-based; parameters: time < 24 hrs, dose 10 mg/kg, route iv; conditions: in vivo
[12] = Prodrug conversion in Sprague-Dawley rat plasma assessed as AUC (0-infinity) of metabolite S-NBP at 10 mg/kg, iv and measured upto 24 hrs by LC-MS/MS analysis; format: ADME, organism-based; parameters: dose 10 mg/kg, time < 24 hrs, route iv; conditions: in vivo
[13] = Prodrug conversion in Sprague-Dawley rat plasma assessed as AUMC (0-t) of metabolite S-NBP at 10 mg/kg, iv and measured upto 24 hrs by LC-MS/MS analysis; format: ADME, organism-based; conditions: in vivo
[14] = Prodrug conversion in Sprague-Dawley rat plasma assessed as AUMC (0-infinity) of metabolite S-NBP at 10 mg/kg, iv and measured upto 24 hrs by LC-MS/MS analysis; format: ADME, organism-based; conditions: in vivo
[15] = Prodrug conversion in Sprague-Dawley rat plasma assessed as MRT of metabolite S-NBP at 10 mg/kg, iv and measured upto 24 hrs by LC-MS/MS analysis; format: ADME, organism-based; conditions: in vivo
[16] = Prodrug conversion in Sprague-Dawley rat plasma assessed as volume of distribution at steady state of metabolite S-NBP at 10 mg/kg, iv and measured upto 24 hrs by LC-MS/MS analysis; format: ADME, organism-based; conditions: in vivo
[17] = Prodrug conversion in Sprague-Dawley rat plasma assessed as elimination rate constant of metabolite 4-F-Eda at 10 mg/kg, iv and measured upto 24 hrs by LC-MS/MS analysis; format: ADME, organism-based; conditions: in vivo
[18] = Prodrug conversion in Sprague-Dawley rat plasma assessed as half life of metabolite 4-F-Eda at 10 mg/kg, iv and measured upto 24 hrs by LC-MS/MS analysis; format: ADME, organism-based; conditions: in vivo
[19] = Prodrug conversion in Sprague-Dawley rat plasma assessed as Cmax of metabolite 4-F-Eda at 10 mg/kg, iv and measured upto 24 hrs by LC-MS/MS analysis; format: ADME, organism-based; parameters: time < 24 hrs, dose 10 mg/kg, route iv; conditions: in vivo
[20] = Prodrug conversion in Sprague-Dawley rat plasma assessed as C0 of metabolite 4-F-Eda at 10 mg/kg, iv and measured upto 24 hrs by LC-MS/MS analysis; format: ADME, organism-based; conditions: in vivo
[21] = Prodrug conversion in Sprague-Dawley rat plasma assessed as AUC (0-t) of metabolite 4-F-Eda at 10 mg/kg, iv and measured upto 24 hrs by LC-MS/MS analysis; format: ADME, organism-based; parameters: dose 10 mg/kg, time < 24 hrs, route iv; conditions: in vivo
[22] = Prodrug conversion in Sprague-Dawley rat plasma assessed as AUC (0-infinity) of metabolite 4-F-Eda at 10 mg/kg, iv and measured upto 24 hrs by LC-MS/MS analysis; format: ADME, organism-based; parameters: dose 10 mg/kg, time < 24 hrs, route iv; conditions: in vivo
[23] = Prodrug conversion in Sprague-Dawley rat plasma assessed as AUMC (0-t) of metabolite 4-F-Eda at 10 mg/kg, iv and measured upto 24 hrs by LC-MS/MS analysis; format: ADME, organism-based; conditions: in vivo
[24] = Prodrug conversion in Sprague-Dawley rat plasma assessed as AUMC (0-infinity) of metabolite 4-F-Eda at 10 mg/kg, iv and measured upto 24 hrs by LC-MS/MS analysis; format: ADME, organism-based; conditions: in vivo
[25] = Prodrug conversion in Sprague-Dawley rat plasma assessed as MRT of metabolite 4-F-Eda at 10 mg/kg, iv and measured upto 24 hrs by LC-MS/MS analysis; format: ADME, organism-based; conditions: in vivo
[26] = Prodrug conversion in Sprague-Dawley rat plasma assessed as volume of distribution at steady state of metabolite 4-F-Eda at 10 mg/kg, iv and measured upto 24 hrs by LC-MS/MS analysis; format: ADME, organism-based; conditions: in vivo
[27] = Prodrug conversion in Sprague-Dawley rat plasma assessed as S-NBP metabolite formation at 10 mg/kg, iv and measured upto 24 hrs by LC-MS/MS analysis; format: ADME, organism-based; conditions: in vivo
[28] = Prodrug conversion in Sprague-Dawley rat plasma assessed as 4-F-Eda metabolite formation at 10 mg/kg, iv and measured upto 24 hrs by LC-MS/MS analysis; format: ADME, organism-based; conditions: in vivo

SMILES: CCCC[C@H](OC(C)=O)c1ccccc1C(=O)Oc1cc(C)nn1-c1ccc(F)cc1
- Activity (Rattus norvegicus [1]): Active
- Activity [2]: Non-Toxic
- Activity (Rattus norvegicus [3]): 77.85%
- Activity (Rattus norvegicus [4]): 13.96%
- half-life at 200 µM [5]: 17 h
- half-life [6]: 0.833 h
- Kel [7]: 0.123 h⁻¹
- t1/2 [8]: 5.69 h
- Cmax [9]: 3242 ng/mL
- C0 [10]: 4653 ng/mL
- AUCt [11]: 2740 ng·h/mL
- AUC [12]: 2819 ng·h/mL
- AUMCt [13]: 9914 hr.hr.ng/ml
- AUMC [14]: 12474 hr.hr.ng/ml
- MRT [15]: 4.45 h
- Vdss [16]: 16.1 L/kg
- Kel [17]: 0.143 h⁻¹
- t1/2 [18]: 5.11 h
- Cmax [19]: 5569 ng/mL
- C0 [20]: 8328 ng/mL
- AUCt [21]: 2958 ng·h/mL
- AUC [22]: 2990 ng·h/mL
- AUMCt [23]: 4095 hr.hr.ng/ml
- AUMC [24]: 5109 hr.hr.ng/ml
- MRT [25]: 1.77 h
- Vdss [26]: 6.18 L/kg
- Drug metabolism [27]: Metabolite_Detected
- Drug metabolism [28]: Metabolite_Detected

Reference: ChEMBL document CHEMBL5113452, “Synthesis and biological evaluation of hybrids from optically active ring-opened 3-N-butylphthalide derivatives and 4-fluro-edaravone as potential anti-acute ischemic stroke agents” (Bioorg Med Chem, 2022)
